From PMC6326523, “A high-throughput screen to identify novel small molecule inhibitors of the Werner Syndrome Helicase-Nuclease (WRN)” (PLoS ONE, 2019)

How the values were obtained:
[1] = molecular target: T1, GST-WRN500-946 helicase fragment (Homo sapiens, UniProt Q14191); assay: Radiometric helicase assay with GST-WRN500-946 fragment (LOPAC hit validation); assay type: biochemical; conditions: GST-WRN500-946 20 nM; FORKR 0.5 nM; increasing concentrations
T1 construct: made in house

[2] = tested on: HeLa 1.2.11 cells; assay: HeLa cell proliferation assay (WST-1); assay type: cell-based, human; conditions: 50 μM, 3-day time course
Protocol: WRN inhibitors were diluted in DMSO to a concentration 100-fold higher than their final concentrations. U2-OS cells in culture were counted, spun down and resuspended to 35,000 cells/mL in DMEM with 10% FBS and Pen/Strep antibiotic. For each cell condition, 15 μL of DMSO or inhibitor was added to 1.5 ml of U2-OS cells in DMEM or DMEM alone. One hundred μL of each cell condition was plated in triplicate on each of four 96-well plates representing days 0–3. Ten μL of WST-1 cell proliferation reagent (Roche) was added to the day 0 plate and readings were taken 2 hr later using a plate reader set to 450 nm. WST-1 cell proliferation reagent was added to plates on days 1–3 and readings were taken after 2 hr incubation. Percent cell proliferation was normalized to cells in the presence of DMSO with the background OD450 of DMEM with each drug subtracted out. […]
Fig 9 Effects of WRN helicase inhibitors on cancer cell proliferation. (A) Cell proliferation of HeLa 1.2.11 cells treated with 50 μM NCGC00029283-03, NCGC00063279-03, NCGC00357377-01 and NSC 617145 (positive control) or vehicle (DMSO) on Day 0 and Day 3 as measured using the WST-1 cell proliferation reagent. […]

T1 sequence (Q14191 500-946): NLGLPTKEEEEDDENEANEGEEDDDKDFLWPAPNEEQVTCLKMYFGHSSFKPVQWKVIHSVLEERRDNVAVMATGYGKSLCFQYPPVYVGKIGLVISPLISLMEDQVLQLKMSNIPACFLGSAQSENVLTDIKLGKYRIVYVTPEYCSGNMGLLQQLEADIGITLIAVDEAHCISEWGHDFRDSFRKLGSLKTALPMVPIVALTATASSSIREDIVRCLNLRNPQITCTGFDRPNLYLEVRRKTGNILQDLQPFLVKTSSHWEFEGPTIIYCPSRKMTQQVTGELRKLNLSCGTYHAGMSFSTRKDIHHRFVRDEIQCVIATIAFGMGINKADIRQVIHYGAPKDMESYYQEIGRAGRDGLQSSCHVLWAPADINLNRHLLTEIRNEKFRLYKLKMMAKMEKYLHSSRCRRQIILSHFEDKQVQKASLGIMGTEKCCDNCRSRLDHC

| SMILES | Inhibition of GST-WRN500-946 unwinding of radiolabeled FORKR [1] | Effect on HeLa 1.2.11 cell proliferation [2] |
| --- | --- | --- |
| N#CSc1ccc2oc(C3=NCCN3)cc2c1 [NCGC00015168-04] | inhibition | – |
| COc1cc2nc(N3CCCN(C)CC3)nc(NC3CCN(Cc4ccccc4)CC3)c2cc1OC [NCGC00185850-03] | inhibition | – |
| CC(C)(CN1C(=O)C(Cl)=C(Cl)C1=O)CN1C(=O)C(Cl)=C(Cl)C1=O [NSC 617145, reference compound] | – | very potent inhibition |
